Results on one molecule are retold here after publication PMC9237960, “Identification of a New Antifungal Peptide W1 From a Marine Bacillus amyloliquefaciens Reveals Its Potential in Controlling Fungal Plant Diseases” (Frontiers in Microbiology, 2022).

In the experiment the test system is F. oxysporum. In kind it is cell-based, Fusarium oxysporum. As to conditions: pH 9.73. The method, then:
The minimum inhibitory concentration (MIC) of W1 against F. oxysporum and S. sclerotiorum was determined using the paper disk diffusion method ([Wen et al., 2014]; [Rao et al., 2015]). In brief, the purified W1 was diluted into 20 mM piperazine buffer (pH 9.73) with final concentrations of 0.464, 0.232, 0.116, 0.058, and 0.029 μg/μl, respectively. On paper disks placed 2 cm from the hyphal margin of fungus on a PDA plate, 60 μl of serially diluted samples were added. Later, the plate was incubated at 30°C for 24–48 h. The MIC was determined as the lowest concentration of W1 that could inhibit visible mold growth and was calculated as the total peptide concentration added to each paper disk (microgram per disk). The piperazine buffer (20 mM) was used as the blank control. All assays were repeated three times independently.

In brackets after ≈: the same amount, converted by molar mass. Peptide text beside a SMILES is read from it.

Turning to `CC[C@H](C)[C@H](NC(=O)[C@H](CC(C)C)NC(=O)[C@H](CC(C)C)NC(=O)[C@H](Cc1ccccc1)NC(=O)[C@H](Cc1ccc(O)cc1)NC(=O)[C@H](CC(C)C)NC(=O)[C@@H](NC(=O)[C@H](C)NC(=O)[C@H](Cc1ccccc1)NC(=O)[C@H](CCSC)NC(=O)[C@H](CC(C)C)NC(=O)[C@@H](NC(=O)[C@@H](NC(=O)[C@@H]1CCCN1C(=O)[C@@H](NC(=O)[C@@H](NC(=O)[C@@H](NC(=O)CN)[C@@H](C)O)[C@@H](C)CC)C(C)C)[C@@H](C)CC)[C@@H](C)CC)C(C)C)C(=O)N[C@@H](CCCNC(=N)N)C(=O)N1CCC[C@H]1C(=O)N[C@@H](CCC(N)=O)C(=O)O` [W1] (H-GTIVPIILMFAVLYFLLIRPQ-OH), the “MIC against F. oxysporum” value came to 58 µg/mL (≈ 24 µM).
